Several values for one entry are separate records, joined by “and”; a condition that tells them apart may be missing. Equal entries are not always repeated.

Consider one molecule from BindingDB's records for doi:10.7270/Q2RR233C (D3R/Abbott, 2020).

The target of the test is Tyrosine-protein kinase ABL1 (Homo sapiens, UniProt P00519). The test can be described thus: D3R2026.
Source text: D3R2026

Chain of Tyrosine-protein kinase ABL1 (P00519 whole entry): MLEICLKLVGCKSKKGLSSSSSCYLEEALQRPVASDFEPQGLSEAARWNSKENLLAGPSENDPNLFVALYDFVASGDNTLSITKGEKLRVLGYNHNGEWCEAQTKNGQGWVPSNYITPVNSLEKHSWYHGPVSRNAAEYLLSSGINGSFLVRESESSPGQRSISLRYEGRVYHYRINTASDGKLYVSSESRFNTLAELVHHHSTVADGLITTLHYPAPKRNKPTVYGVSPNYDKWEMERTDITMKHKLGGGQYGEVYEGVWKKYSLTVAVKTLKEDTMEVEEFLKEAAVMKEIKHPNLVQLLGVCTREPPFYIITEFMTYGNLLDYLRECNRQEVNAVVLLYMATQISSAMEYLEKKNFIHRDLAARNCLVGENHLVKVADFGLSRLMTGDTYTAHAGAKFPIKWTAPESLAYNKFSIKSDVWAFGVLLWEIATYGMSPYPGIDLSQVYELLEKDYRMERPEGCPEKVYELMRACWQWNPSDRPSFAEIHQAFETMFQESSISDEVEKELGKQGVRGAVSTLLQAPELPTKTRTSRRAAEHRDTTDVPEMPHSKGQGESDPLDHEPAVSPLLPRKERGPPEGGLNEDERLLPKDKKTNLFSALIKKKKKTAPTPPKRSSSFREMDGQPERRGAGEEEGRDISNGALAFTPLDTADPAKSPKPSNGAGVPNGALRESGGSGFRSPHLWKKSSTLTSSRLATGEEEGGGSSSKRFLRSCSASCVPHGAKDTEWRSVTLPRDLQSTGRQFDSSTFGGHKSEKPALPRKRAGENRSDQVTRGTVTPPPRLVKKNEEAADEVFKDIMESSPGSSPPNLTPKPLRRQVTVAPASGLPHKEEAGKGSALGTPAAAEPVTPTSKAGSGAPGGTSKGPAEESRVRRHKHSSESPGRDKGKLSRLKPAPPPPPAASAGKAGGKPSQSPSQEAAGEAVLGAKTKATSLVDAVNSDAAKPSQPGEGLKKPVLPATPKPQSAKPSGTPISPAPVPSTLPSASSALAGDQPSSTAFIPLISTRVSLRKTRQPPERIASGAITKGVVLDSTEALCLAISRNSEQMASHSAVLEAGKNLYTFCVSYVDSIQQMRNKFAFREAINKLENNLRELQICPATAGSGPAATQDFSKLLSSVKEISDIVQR

Take `CCOC(=O)N1CCC(n2cnc(-c3ccc(F)cc3)c2-c2ccnc(N)n2)CC1` [4-[5-(2-Amino-pyrimidin-4-yl)-4-(4-fluoro-phenyl)-imidazol-1-yl]-piperidine-1-carboxylic acid ethyl ester]: the Kd (in general, the constant that tells how readily two partners part at equilibrium) is 4.8 µM and 10 µM and 2.2 µM and 5.4 µM.
